Experimental data as given in ChEMBL document CHEMBL1139229, “Design and synthesis of potent inhibitors of the malaria parasite dihydroorotate dehydrogenase” (J Med Chem, 2007).
Activity calls are given as the source filed them. The calls are words filed in the database; no cut-off is given here.

Tests used:
[1] = molecular target: Dihydroorotate dehydrogenase (quinone), mitochondrial (Homo sapiens, UniProt Q02127); experiment: Inhibition of human recombinant DHODH
[2] = Selectivity for Plasmodium falciparum recombinant DHODH over human recombinant DHODH
[3] = molecular target: T1, Dihydroorotate dehydrogenase (Plasmodium falciparum) (UniProt Q54A96); experiment: Inhibition of recombinant Plasmodium falciparum DHODH at 10 uM
T1 sequence (whole entry): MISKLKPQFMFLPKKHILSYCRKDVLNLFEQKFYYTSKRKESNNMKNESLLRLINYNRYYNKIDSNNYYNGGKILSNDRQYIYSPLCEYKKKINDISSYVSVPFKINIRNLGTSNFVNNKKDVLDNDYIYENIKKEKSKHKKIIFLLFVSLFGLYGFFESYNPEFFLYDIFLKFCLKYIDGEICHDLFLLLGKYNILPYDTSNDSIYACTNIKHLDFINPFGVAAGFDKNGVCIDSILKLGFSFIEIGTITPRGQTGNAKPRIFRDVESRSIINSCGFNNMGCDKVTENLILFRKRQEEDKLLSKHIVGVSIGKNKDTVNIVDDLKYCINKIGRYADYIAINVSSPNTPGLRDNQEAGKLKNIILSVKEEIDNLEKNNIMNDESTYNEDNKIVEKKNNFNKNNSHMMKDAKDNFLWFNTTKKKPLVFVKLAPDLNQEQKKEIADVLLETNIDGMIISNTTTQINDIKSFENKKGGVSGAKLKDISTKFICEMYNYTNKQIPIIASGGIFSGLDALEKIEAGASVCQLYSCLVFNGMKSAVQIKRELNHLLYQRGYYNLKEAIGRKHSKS

[4] = molecular target: T2, Dihydroorotate dehydrogenase (Plasmodium falciparum, UniProt Q54A96); experiment: (§1) Inhibition of recombinant Plasmodium falciparum DHODH
T2 sequence (Q54A96 whole entry): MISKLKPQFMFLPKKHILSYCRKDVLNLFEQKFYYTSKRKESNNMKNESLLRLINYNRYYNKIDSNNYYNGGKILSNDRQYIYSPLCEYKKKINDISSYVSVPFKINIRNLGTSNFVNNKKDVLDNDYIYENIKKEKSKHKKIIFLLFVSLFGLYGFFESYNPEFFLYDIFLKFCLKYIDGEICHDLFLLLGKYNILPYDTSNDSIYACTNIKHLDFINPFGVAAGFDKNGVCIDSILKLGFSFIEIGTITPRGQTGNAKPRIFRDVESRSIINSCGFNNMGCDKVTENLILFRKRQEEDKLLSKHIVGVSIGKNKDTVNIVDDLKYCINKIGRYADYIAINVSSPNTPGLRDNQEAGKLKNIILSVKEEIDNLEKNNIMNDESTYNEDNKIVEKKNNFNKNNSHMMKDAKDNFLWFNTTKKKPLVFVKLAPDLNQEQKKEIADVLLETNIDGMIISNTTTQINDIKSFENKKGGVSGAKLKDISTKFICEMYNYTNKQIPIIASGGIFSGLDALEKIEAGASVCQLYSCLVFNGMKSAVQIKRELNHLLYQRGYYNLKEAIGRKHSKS

[5] = system: T3, Dihydroorotate dehydrogenase (quinone), mitochondrial (Plasmodium falciparum (isolate 3D7)), Q08210 [F188A]; experiment: Inhibition of Plasmodium falciparum DHODH F188A mutant
T3 sequence (whole entry): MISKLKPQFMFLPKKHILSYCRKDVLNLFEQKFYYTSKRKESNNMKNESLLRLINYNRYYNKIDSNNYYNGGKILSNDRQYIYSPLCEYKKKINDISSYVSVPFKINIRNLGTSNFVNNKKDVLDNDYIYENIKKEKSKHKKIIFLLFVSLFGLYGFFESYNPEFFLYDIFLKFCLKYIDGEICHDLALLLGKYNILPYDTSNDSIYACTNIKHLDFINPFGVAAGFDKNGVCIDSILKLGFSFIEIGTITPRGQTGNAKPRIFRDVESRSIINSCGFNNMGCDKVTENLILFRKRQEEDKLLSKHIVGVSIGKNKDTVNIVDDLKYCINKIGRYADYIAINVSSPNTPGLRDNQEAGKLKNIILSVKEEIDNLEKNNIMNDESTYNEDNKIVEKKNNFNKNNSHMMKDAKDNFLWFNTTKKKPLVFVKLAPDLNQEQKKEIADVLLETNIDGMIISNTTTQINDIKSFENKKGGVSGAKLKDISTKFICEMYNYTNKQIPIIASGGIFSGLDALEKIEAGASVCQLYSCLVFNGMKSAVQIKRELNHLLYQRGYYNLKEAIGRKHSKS

[6] = system: Plasmodium falciparum; experiment: Antimalarial activity against Plasmodium falciparum NF54 3D7 after 48 hrs; type: functional, organism-based; conditions: NF54/3D7, 48 h
[7] = compound: CCCCCCCCCCC1=C(C)C(=O)C(OC)=C(OC)C1=O; experiment: as §1
[8] = compound: O=C1CC(C(=O)O)NC(=O)N1; experiment: as §1

Chain of Dihydroorotate dehydrogenase (quinone), mitochondrial (Q02127 whole entry): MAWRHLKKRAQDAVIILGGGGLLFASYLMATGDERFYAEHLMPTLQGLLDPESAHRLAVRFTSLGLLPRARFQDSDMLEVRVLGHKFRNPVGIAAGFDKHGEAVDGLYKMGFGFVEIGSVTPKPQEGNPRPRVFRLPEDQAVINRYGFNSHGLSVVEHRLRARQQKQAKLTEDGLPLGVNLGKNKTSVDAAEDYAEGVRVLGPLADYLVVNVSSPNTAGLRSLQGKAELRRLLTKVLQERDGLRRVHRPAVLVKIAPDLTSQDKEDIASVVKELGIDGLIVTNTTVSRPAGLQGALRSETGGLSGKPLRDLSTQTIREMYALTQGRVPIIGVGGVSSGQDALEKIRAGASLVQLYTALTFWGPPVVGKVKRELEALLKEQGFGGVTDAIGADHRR

| Molecule | IC50 [1] [µM] | Ki [1] [µM] | Selectivity ratio [2] | inhibition [3] [%] | IC50 [4] [µM] | Ki [4] [µM] | Activity [5] | IC50 [6] [µM] | Km [7] [µM] | Km [8] [µM] |
| --- | --- | --- | --- | --- | --- | --- | --- | --- | --- | --- |
| CCOC(=O)/C(C#N)=C\Nc1cccc(-c2ccccc2)c1 | 220 | 0.027 | 10 |  |  |  |  |  |  |  |
| CCOC(=O)C(=CNc1ccccc1C)C(=O)OCC | 292 | 35.9 | 1 | > 10 | 346 | 39.7 |  |  |  |  |
| CCOC(=O)C(=CNc1ccc(C)cc1)C(=O)OCC | 146 | 17.9 | 4 | > 10 | 40 | 4.6 |  |  |  |  |
| CCOC(=O)C(=CNc1ccc2[nH]ncc2c1)C(=O)OCC | 123 | 15.1 | 5 | > 10 | 27.8 | 3.2 |  |  |  |  |
| C/C(O)=C(\C#N)C(=O)Nc1ccc(C(F)(F)F)cc1 |  |  |  |  |  |  | inactive |  |  |  |
| CCOC(=O)/C(C#N)=C\Nc1ccc(-c2ccccc2)cc1 | > 500 |  |  |  | > 500 |  |  |  |  |  |
| CCOC(=O)C(=CNc1ccc2[nH]cnc2c1)C(=O)OCC | > 500 |  |  | > 10 | 349 | 40.2 |  |  |  |  |
| CCOC(=O)C(=CNc1ccc2sc3ccccc3c2c1)C(=O)OCC | 29.6 | 3.63 | 182 | > 10 | 0.16 | 0.02 |  | 1.8 |  |  |
| Cc1cc(Br)ccc1NC(=O)c1ccc2ccccc2c1 |  | 50.9 | 2310 |  | 0.18 | 0.02 | inactive |  |  |  |
| Cc1c(C(=O)Nc2cc(Cl)cc(Cl)c2)cccc1[N+](=O)[O-] |  | 64.4 | 2280 |  | 0.23 | 0.03 | inactive |  |  |  |
| CCOC(=O)/C(C#N)=C\Nc1ccc2c(c1)c1ccccc1n2CC | 491 | 60.4 | 1210 | > 10 | 0.44 | 0.05 |  | 4 |  |  |
| CCOC(=O)C(=CNc1cccc(-c2ccccc2)c1)C(=O)OCC | 104 | 12.8 | 1 |  | 86.7 | 10 |  |  |  |  |
| CCOC(=O)C(=CNc1ccc(-c2ccccc2)cc1)C(=O)OCC | > 500 |  |  |  | > 500 |  |  |  |  |  |
| Dihydroorotate dehydrogenase (Plasmodium falciparum), Q54A96 (protein) MISKLKPQFMFLPKKHILSYCRKDVLNLFEQKFYYTSKRKESNNMKNESLLRLINYNRYYNKIDSNNYYNGGKILSNDRQYIYSPLCEYKKKINDISSYVSVPFKINIRNLGTSNFVNNKKDVLDNDYIYENIKKEKSKHKKIIFLLFVSLFGLYGFFESYNPEFFLYDIFLKFCLKYIDGEICHDLFLLLGKYNILPYDTSNDSIYACTNIKHLDFINPFGVAAGFDKNGVCIDSILKLGFSFIEIGTITPRGQTGNAKPRIFRDVESRSIINSCGFNNMGCDKVTENLILFRKRQEEDKLLSKHIVGVSIGKNKDTVNIVDDLKYCINKIGRYADYIAINVSSPNTPGLRDNQEAGKLKNIILSVKEEIDNLEKNNIMNDESTYNEDNKIVEKKNNFNKNNSHMMKDAKDNFLWFNTTKKKPLVFVKLAPDLNQEQKKEIADVLLETNIDGMIISNTTTQINDIKSFENKKGGVSGAKLKDISTKFICEMYNYTNKQIPIIASGGIFSGLDALEKIEAGASVCQLYSCLVFNGMKSAVQIKRELNHLLYQRGYYNLKEAIGRKHSKS |  |  |  |  |  |  |  |  | 13.4 | 31.4 |
